In patent publication US20250250283A1, “COMPOUND CAPABLE OF REGULATING AND CONTROLLING ACTIVITY OF 15-PGDH, AND PREPARATION METHOD THEREFOR” (SCINNOHUB PHARMACEUTICAL CO., LTD., priority 2022, published 2025):
Read-outs that look alike come from different tables or passages of the source.

Columns and labels:
[1] = molecular target: 15-PGDH enzyme (Homo sapiens (Human), UniProt P15428); assay: Detection of activity of 15-PGDH (enzyme inhibition, NADH fluorescence, PGF2α/β-NAD substrates); assay type: biochemical
Protocol: Test Example 1: Detection of Activity of 15-PGDH Kinase
• a. A solution of pH 7.5 containing 50 mM Tris-HCl, 0.01% Tween 20 was prepared with ultrapure water as a reaction buffer; • b. A 10 mM mother liquor of the compound to be tested was prepared with DMSO, and then the reaction buffer was used to dilute the mother liquor of the compound to be tested to obtain solution 1 of the compound to be tested at a concentration of 40,000 nM, and then the solution 1 of the compound to be tested was serially diluted into solutions 2-9 (or 2-12) of the compound to be tested at 9 (or 11) concentrations with a gradient difference of three-fold. 5 μL of each concentration of solutions of the compound to be tested was respectively taken and added into a 384-well plate as test wells; • c. 5 μL of the reaction buffer was added to the blank wells of the 384-well plate as positive control and blank control wells, respectively; • d. The reaction buffer was used to prepare a 15-PGDH protein solution at a concentration of 5 ng/μL, 5 μL of the 15-PGDH protein solution was taken and added to the test wells and positive control wells, and meanwhile 5 μL of the reaction buffer was added to the blank control wells, then the plate was centrifuged at 2000 rpm for 30 seconds; • e. The reaction buffer was used to prepare 5 mM β-NAD and 2 mM PGF2α, respectively, which were mixed at 1:1 by volume to obtain a substrate mixture, 10 μL of the substrate mixture was taken and added to the test wells, positive control wells and blank control wells to start the reaction; • f. The fluorescence signal value (Ex/Em=340/450) of each well was detected continuously by using a multifunctional microplate reader.
• a) Continuous fluorescence signal values were analyzed by using the “kinetic calculations-slope calculation method” in the PHERAstar Data analysis software to obtain the slope of each test well; • b) The inhibition rate % was calculated by using the following formula:
[formula] • c) Calculation of IC50 and plotting of inhibition rate-dose curves: IC50 values were calculated by fitting compound concentrations and corresponding inhibition rates with a nonlinear regression (dose response-variable slope) via using GraphPad Prism 6.0. The formula was shown below:
Y=Bottom+(Top−Bottom)/(1+10^((Log IC50−X)*HillSlope)), wherein X is a log value of a concentration of the compound, and Y is inhibition rate %.

[2] = tested on: A549 cells; assay: Assay of intracellular PGE2 up-regulatory activity in IL-1β-stimulated A549 cells; assay type: cell-based; conditions: IL-1β induced, 8 h
Protocol: Test Example 2: Assay of Intracellular PGE2 Up-Regulatory Activity
a) A549 cells were inoculated in the 24-well plate, and after cell adhesion, IL-1β was added thereto for 16 h of stimulation to induce COX2 expression and PGE2 production. b) A solution of the compound to be tested was prepared with the culture medium and gradiently diluted to 3 concentrations of 10 nM, 300 nM and 10,000 nM or 7 concentrations of 0.64 nM, 3.2 nM, 16 nM, 80 nM, 400 nM, 2000 nM and 10,000 nM, and meanwhile the positive control group (only IL-1β was added to the cells for induction) and negative control group (only cells were added in the wells without any treatment) were set up. The cell supernatants were collected after 8 h of action, in which the positive control group was induced by IL-1β without treatment of the compounds, and the negative control group was neither stimulated by IL-1β, nor treated with the compounds. c) The PGE2 content of the samples was determined by Prostaglandin E2 Kit, and the fluorescence signal was detected by a multifunctional microplate reader (Ex/Em=337/620, 337/665).
a) A standard curve was plotted with the PGE2 standard in the Prostaglandin E2 Kit, and the PGE2 concentration was calculated by substituting with the fluorescence signal of the sample. b) The PGE2 up-regulation rate % was calculated by using the following formula: […]

[3] = inhibitory activity against 15-PGDH enzyme, class symbols, read-out: IC50

Sequence of 15-PGDH enzyme (P15428 whole entry): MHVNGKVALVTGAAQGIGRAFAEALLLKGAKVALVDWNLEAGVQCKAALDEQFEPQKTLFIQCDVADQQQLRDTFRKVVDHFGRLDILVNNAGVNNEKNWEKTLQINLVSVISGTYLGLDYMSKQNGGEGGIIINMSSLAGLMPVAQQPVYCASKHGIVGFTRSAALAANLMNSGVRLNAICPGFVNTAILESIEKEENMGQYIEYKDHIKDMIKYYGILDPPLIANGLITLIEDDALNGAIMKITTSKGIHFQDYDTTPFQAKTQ

Row | IC50 [1, 3] | Structure (SMILES) | also measured
1 | 3 to 10 nM | O=C(c1sc2nc(-c3ccccc3)n3ccnc3c2c1C1CC1)N1CCCCC1 [Example 14] | 
2 | 3 to 10 nM | Cc1c(C(=O)N2CCCCC2)sc2nc(-c3ccccc3)n3ccnc3c12 [Example 13] | 
3 | 3 to 10 nM | CC(C)c1c(C(=O)N2CCCCC2)sc2nc(-c3ccccc3)n3ccnc3c12 [Example 23, (9-isopropyl-5-phenylimidazo[1,2-c]thieno[3,2-e]pyrimidin-8-yl)(piperidin-1-yl)methanone] | 
4 | 25 to 50 nM | Nc1c(C(=O)N2CCCC2)sc2nc(-c3ccccc3)n3ccnc3c12 [Example 17] | 
5 | 10 to 25 nM | O=C(c1cc2c(nc(-c3ccccc3)n3ccnc23)s1)N1CCCCC1 [Example 18] | 
6 | < 3 nM | Nc1c(C(=O)N2CCCCC2)sc2nc(-c3ccccc3)n3ccnc3c12 [Example 7] | 
7 | 3 to 10 nM | N#Cc1c(C(=O)N2CCCCC2)sc2nc(-c3ccccc3)n3ccnc3c12 [Example 22] | 
8 | 10 to 25 nM | COc1c(C(=O)N2CCCCC2)sc2nc(-c3ccccc3)n3ccnc3c12 [Example 6, (9-methoxy-5-phenylimidazo[1,2-c]thieno[3,2-e]pyrimidin-8-yl)(piperidin-1-yl)methanone] | 
9 | < 3 nM | O=C(c1sc2nc(-c3ccccc3)n3ccnc3c2c1I)N1CCCCC1 [Example 4, (9-iodo-5-phenylimidazo[1,2-c]thieno[3,2-e]pyrimidin-8-yl)(piperidin-1-yl)methanone] | 

Further lines, the molecule ahead of its results:

Row | Structure (SMILES) | IC50 [1, 3] | also measured
10 | Nc1c(C(=O)N2CCCCC2)sc2nc(-c3cnccn3)n3ccnc3c12 [Example 21] | < 3 nM | PGE2 up-regulation rate ([2]; compound 400 nM): 321%
11 | O=C(c1sc2nc(-c3ccccc3)n3ccnc3c2c1C(F)(F)F)N1CCCCC1 [Example 12] | 3 to 10 nM | 
12 | Cc1cn2c(-c3ccccc3)nc3sc(C(=O)N4CCC(F)CC4)c(N)c3c2n1 [Example 9] | 3 to 10 nM | PGE2 up-regulation rate ([2]; compound 400 nM): 333%
13 | Nc1c(C(=O)N2CCCCC2)sc2nc(-c3ccccn3)n3ccnc3c12 [Example 10] | 3 to 10 nM | 
14 | Nc1c(C(=O)N2CCCCC2)sc2nc(-c3cccnc3)n3ccnc3c12 [Example 15] | < 3 nM | 
15 | Nc1c(C(=O)N2CCC(F)CC2)sc2nc(-c3ccccc3)n3ccnc3c12 [Example 1, (9-amino-5-phenylimidazo[1,2-c]thieno[3,2-e]pyrimidin-8-yl)(4-fluoropiperidin-1-yl)methanone] | < 3 nM | IC50 ([1]; stated in text as bounds, read-out: IC50 value of the inhibitory activity against 15-PGDH enzyme): < 1.5 nM
16 | Nc1c(C(=O)N2CCC(F)CC2)sc2c1C1=NCCN1C(c1ccccc1)=N2 [Compound 8, (9-amino-5-phenyl-2,3-dihydroimidazo[1,2-c]thieno[3,2-e]pyrimidin-8-yl)(4-fluoropiperidin-1-yl)methanone] | 10 to 25 nM | 
17 | Nc1c(C(=O)N2CCC(F)(F)CC2)sc2nc(-c3ccccc3)n3ccnc3c12 [Example 8] | 3 to 10 nM | PGE2 up-regulation rate ([2]; compound 16 nM): 483%; PGE2 up-regulation rate ([2]; compound 80 nM): 520%; PGE2 up-regulation rate ([2]; compound 400 nM): 770%
18 | Nc1c(C(=O)N2CCC(F)CC2)sc2nc(-c3ccccc3)n3cc(C(F)(F)F)nc3c12 [Example 2, (9-amino-5-phenyl-2-(trifluoromethyl)imidazo[1,2-c]thieno[3,2-e]pyrimidin-8-yl)(4-fluoropiperidin-1-yl)methanone] | 3 to 10 nM | 
19 | Nc1c(C(=O)N2CCCCC2)sc2nc(-c3ccncc3)n3ccnc3c12 [Example 3, (9-amino-5-(pyridin-4-yl)imidazo[1,2-c]thieno[3,2-e]pyrimidin-8-yl)(piperidin-1-yl)methanone] | < 3 nM | 
20 | Nc1c(C(=O)N2CCCCC2)sc2nc(-c3ccc4ccccc4n3)n3ccnc3c12 [Example 20] | 10 to 25 nM | 
21 | Nc1c(C(=O)N2CCCCC2)sc2nc(-c3ccccc3)n3cnnc3c12 [Example 5, (9-amino-5-phenylthieno[3,2-e][1,2,4]triazolo[4,3-c]pyrimidin-8-yl)(piperidin-1-yl)methanone] | 3 to 10 nM | 
22 | Nc1c(C(=O)N2CCCCC2)sc2nc(-c3nccs3)n3ccnc3c12 [Example 19] | 10 to 25 nM | 
23 | CN1Cc2cc(-c3nc4sc(C(=O)N5CCCCC5)c(N)c4c4nccn34)ccc2C1=O [Example 24, 5-(9-amino-8-(piperidine-1-carbonyl)imidazo[1,2-c]thieno[3,2-e]pyrimidin-5-yl)-2-methylisoindol-1-one] | < 3 nM | PGE2 up-regulation rate ([2]; compound 3.2 nM): 568%; PGE2 up-regulation rate ([2]; compound 16 nM): 461%; PGE2 up-regulation rate ([2]; compound 80 nM): 473%
24 | CCN(CC)C(=O)c1sc2nc(-c3ccccc3)n3ccnc3c2c1N [Example 16] | 25 to 50 nM | 
25 | Cn1ccc2cc(-c3nc4sc(C(=O)N5CCCCC5)c(N)c4c4nccn34)ccc2c1=O [Example 25, 6-(9-amino-8-(piperidin-1-carbonyl)imidazo[1,2-c]thieno[3,2-e]pyrimidin-5-yl)-2-methylisoquinolin-1(2H)-one] | < 3 nM | PGE2 up-regulation rate ([2]; compound 3.2 nM): 513%; PGE2 up-regulation rate ([2]; compound 16 nM): 782%; PGE2 up-regulation rate ([2]; compound 80 nM): 741%
